Assays:
[1] = molecular target: Inosine-5'-monophosphate dehydrogenase 2 (Homo sapiens, UniProt P12268); test: Inhibition of IMPDH2 using inosine 5'-monophosphate as substrate by spectrophotometry
[2] = Immunosuppressive activity in C57BL/6 mouse T lymphocytes assessed as inhibition of cell proliferation after 72 hrs by MTT assay; format: functional, cell-based; conditions: C57BL/6, T-cell

Structure (SMILES): COc1c(C)c2c(c(O)c1C/C=C(\C)[C@@H](O)CC(=O)O)C(=O)OC2
- IC50 [1]: 1.79 µM
- IC50 [2]: 1.1 µM

Structure (SMILES): COc1c(C)c2c(c(OC)c1C/C=C(\C)[C@@H](O)CC(=O)O)C(=O)OC2 [PENICACID A]
- IC50 [1]: 28.9 µM
- IC50 [2]: 2.46 µM

Structure (SMILES): COc1c(C)c2c(c(O)c1C/C=C(\C)[C@H](CC(=O)O)O[C@H]1O[C@H](CO)[C@@H](O)[C@H](O)[C@H]1O)C(=O)OC2 [PENICACID B]
- IC50 [1]: 6.43 µM
- IC50 [2]: > 20 µM

Structure (SMILES): COc1c(C)c2c(c(O)c1CC(O)C(C)(O)C(O)CC(=O)O)C(=O)OC2 (centres undefined) [PENICACID C]
- IC50 [1]: 73.2 µM
- IC50 [2]: > 30 µM

Structure (SMILES): COc1c(C)c2c(c(O)c1C/C=C(\C)CCC(=O)O)C(=O)OC2 [MYCOPHENOLIC ACID]
- IC50 [2]: 0.32 µM

From ChEMBL document CHEMBL2016539 (Bioorg Med Chem Lett, 2012)
